Assay results as given in patent US9848603B2, “Methods for protecting plants with antifungal compositions” (priority 2008, dated 2017).

Key:
[1] = system: filamentous fungi; format: cell-based; conditions: Fov, F. graminearum, F. oxysporum f. sp. dianthi and lycopersici, F. solani, F. pseudograminearum, C. heterostrophus, A. brassicola, G. graminis var. tritici, T. basicola, V. dahliae, A. nidulans, S. sclerotiorum, B. cinerea, L. maculans
[2] = system: Pseudomonas aeruginosa; experiment: Effect of NaD1 on bacterial growth; format: cell-based
[3] = system: Verticillium dahliae; format: cell-based; conditions: read-out: NaD1 IC50
[4] = system: Verticillium dahliae; experiment: Field trial of transgenic and non-transgenic cotton seed coated with fungicide in Verticillium dahliae infected soil; format: in vivo
[5] = system: Bacillus cereus; experiment: Effect of NaD1 on bacterial growth; format: cell-based
[6] = system: Fov hyphae; experiment: Detection of reactive oxygen species (DHR123 oxidation) in response to NaD1; conditions: NaD1 0.1, 2 and 10 μM or 10 μM NaD1R&A
[7] = system: Staphylococcus aureus; experiment: Effect of NaD1 on bacterial growth; format: cell-based
[8] = system: Pichia pastoris; experiment: Effect of NaD1 on growth of yeast strains
Method: (§1) The effect of NaD1 on the growth of the yeast strains Candida albicans, Pichia pastoris and Saccharomyces cerevisiae (from Department of Microbiology, La Trobe University) was assayed in microtitre plates. Cells were grown in YPD for 48 h, then counted using a haemocytometer and diluted to a concentration of 5×10^4 cells/mL in fresh YPD. Cell suspension (100 μL) containing 0-10 μM NaD1 was added to the wells of a 96-well microtitre plate and incubated for 48 h at 30° C. Growth was determined by measuring the optical density at 595 nm using a microtitre plate reader. Each test was performed in quadruplicate.

[9] = system: Fov hyphae; experiment: Membrane permeabilization of Fov hyphae, SYTOX green uptake; format: cell-based, Fusarium oxysporum f. sp. vasinfectum
[10] = system: Fusarium oxysporum f. sp. vasinfectum (Fov); experiment: Growth cabinet bioassay of transgenic and non-transgenic cotton seed coated with fungicide in Fov infected soil; conditions: transgenic Coker expressing NaD1, seeds not coated with fungicide
Method: The assay was conducted as described for the glasshouse assay except for the following modifications.
Thirty seeds were planted for each test (transgenic and non-transgenic, coated and non-coated seed). Seed was sown directly into the containers, 24 seed per box in a 4×6 array. Six seed for each test were sown randomly in each box. Seeds were germinated for 7 days, conditions were 16 hours light at 30° C. and 8 hours dark at 15° C., with a ramp of 2° C. per hour. For the remainder of the experiment the conditions were 16 hours light at 25° C. and 8 hours dark at 10° C. with a ramp of 2° C. per hour.
Plants were grown for 4 weeks. Foliar symptom development was measured throughout the trial and disease score was determined by destructive sampling at the end of the trial. The following rating was used to determine the disease score: 0=no symptoms, 1=vascular browning to base of stem, 2=vascular browning to cotyledons, 3=vascular browning past cotyledons, 4=vascular browning to true leaves, 5=dead. The average disease score was an average for all seeds that germinated.

[11] = system: Leptosphaeria maculans; format: cell-based; conditions: read-out: NaD1 IC50
[12] = system: Candida albicans; experiment: Effect of NaD1 on growth of yeast strains
Method: as §1

[13] = system: Fov hyphae; experiment: Uptake of FITC-labeled dextrans into NaD1-treated hyphae
Method: The uptake of FITC-labeled dextran with NaD1 treatment of fungal hyphae was also studied. Fov hyphae were grown as described above and incubated with NaD1 (final concentration 0.1, 2, 10 or 50 μM) or an equivalent volume of water for 2 h at RT with gentle agitation. Hyphae were washed twice for 10 min with half-strength PDB to remove excess NaD1 before FITC dextrans of either 4 kDa (FD-4, Sigma-Aldrich) or 10 kDa (FD-10, Sigma-Aldrich) were added to a final concentration of 1 mg/mL. Hyphae were incubated for a further 30 min at RT and then washed twice with half strength PDB to remove excess dextrans. Fluorescence microscopy was used to visualize hyphae as described for SYTOX® green. A second assay was performed under the same conditions except the dextrans were added at the same time as NaD1.

[14] = system: Fov hyphae; experiment: Immunogold electron microscopy of NaD1-treated hyphae; format: cell-based, Fusarium oxysporum f. sp. vasinfectum; conditions: NaD1 (10 μM) for 2 h
[15] = system: Fusarium graminearum; format: cell-based; conditions: defensin in combination with the triazole tebuconazole
[16] = system: Fusarium oxysporum f. sp. vasinfectum (Fov); format: cell-based; conditions: read-out: NaD1 IC50
[17] = system: Spodoptera frugiperda (Sf21) insect cells; experiment: Effect of NaD1 on growth of insect cells
Method: The effect of NaD1 on the growth of Insect cells was determined as follows. Spodoptera frugiperda (Sf21) insect cells were grown to ˜90% confluency in Sf-900 II serum free media (Gibco™, 20 mL) in a 75 cm^2 tissue culture flask with a vented cap (Nunc). Cells were then split one in two with fresh media. Cell suspension was added to 96-well flat-bottomed microtitre plate wells (190 μL/well) and the cells were allowed to settle for 30 min prior to addition of NaD1 (10 μL) to give a final concentration of 0-10 μM. Growth was monitored until the cells reached confluency (˜48 h).

[18] = system: Aspergillus nidulans; format: cell-based; conditions: read-out: NaD1 IC50
[19] = system: Fusarium oxysporum f. sp. vasinfectum (Fov); experiment: Glasshouse bioassay of transgenic and non-transgenic cotton seed coated with fungicide in Fov infected soil; conditions: transgenic Coker expressing NaD1, seeds not coated with fungicide
Method: Cultures of Fov (isolate #24500 VCG 01111) were prepared in millet and incorporated into a soil mix. The infected soil was used to grow line 35.125.1 and non-transgenic Coker 315. The culture of Fov was prepared in ½ strength PDB (12 g/L potato dextrose) and grown for approximately one week at 26° C. The culture (5 to 10 mL) was used to infect autoclaved hulled millet which was then grown for 2 to 3 weeks at room temperature. The infected millet was incorporated into a pasteurized peat based soil mix at 1% (v/v), by vigorous mixing in a 200 L compost tumbler. The infected soil was transferred to plastic containers (10 L of mix per 13.5 L container).
The cotton seed was either non-coated or coated with the fungicide HEC5725 (active ingredient Fluoxastrobin, Bayer Crop Science, batch number 06529/0022) at a rate of 1 mL/kg of seed and allowed to dry prior to sowing. Water was added to facilitate even coating of the seed (62.5 mL/kg of seed). Untreated samples were treated with water only.
Forty eight seeds were planted for each test (transgenic and non-transgenic, coated and non-coated seed). Seed was sown directly into the containers, 12 seed per box in a 3×4 array. […]
Plants were grown for 7 weeks. Foliar symptom development was measured throughout the trial and disease score was determined by destructive sampling at the end of the trial. […]

[20] = system: Fov; conditions: transgenic cotton variety expressing NaD1, field trials; cited from earlier work
[21] = system: Leptosphaeria maculans; experiment: Fungal glasshouse bioassay of transgenic canola seedlings expressing NaD1; format: in vivo, canola (Brassica napus); conditions: NaD1 expressed in transgenic canola line CAT13.26
[22] = system: HeLa cells
Method: To examine the effect of NaD1 on mammalian cell growth, HeLa cells were seeded at 50% in Dulbecco's modified Eagle's medium (Gibco™-BRL) containing 10% (v/v) fetal calf serum with or without NaD1 (10 μM) at 37° C. under an atmosphere of 5% CO2 and 95% air in a 60 mm Petri dish. Cells were incubated for 48 h at 37° C. before they were stained with trypan blue to check viability and counted using a haemocytometer.

[23] = system: Fusarium graminearum; experiment: microbe, parasite or virus in culture; format: cell-based
[24] = system: Escherichia coli; experiment: Effect of NaD1 on bacterial growth; format: cell-based
[25] = system: F. graminearum hyphae; format: cell-based, Fusarium graminearum; conditions: various concentrations of NaD1
[26] = system: F. graminearum hyphae; format: cell-based, Fusarium graminearum
[27] = system: Saccharomyces cerevisiae; experiment: Effect of NaD1 on growth of yeast strains
Method: as §1

[28] = system: Fusarium oxysporum f. sp. vasinfectum (Fov); experiment: Field trial of transgenic and non-transgenic cotton seed coated with fungicide in Fov infected soil; conditions: NaD1 expressed in transgenic line 35.125.1, coated or uncoated
Method: Seed of the two lines were either not coated with fungicide or were coated with the fungicide HEC5725 (active ingredient fluoxastrobin, Bayer CropScience, batch number 06529/0022) at a rate of 1 mL/kg of seed, or with the commercial seed coat fungicides Dynasty® (Registered Trademark) (active ingredients 75 g/L azoxystrobin, 37.5 g/L metalaxyl-m, 12.5 g/L fludioxonil, Syngenta) at a rate of 2 mL/kg of seed, Jockey® (Registered Trademark) (active ingredient 167 g/L fluquinconazole, Bayer CropScience) at a rate of 20 mL/kg of seed or Redigo® (Registered Trademark) (active ingredient 100 g/L prothioconazole, Bayer CropScience) at a rate of 1 mL/kg of seed. All seed (coated and uncoated with fungicide) was coated with the insecticide Gaucho® (Registered Trademark) (600 g/L imidacloprid, Bayer CropScience) to control early season thrips and aphids. Seed was prepared to ensure even coating of fungicide and insecticide and allowed to dry prior to sowing.
Plants were grown at a farm in the Darling Downs region of Queensland, Australia. Seed was mechanically planted into soil known to be infected with Fusarium oxysporum f.sp. vasinfectum. […]
Emergence and plant survival were recorded. […] Statistical significance of the interaction of plant line and mortality was calculated using a Pearson's chi-square test.

[29] = system: Fov hyphae; experiment: Isolation of NaD1 from treated hyphae (SDS-PAGE and immunoblotting of cytoplasmic contents)
Method: Fov hyphae were grown as described above prior to the addition of NaD1 (10 μM final concentration) to 1 mL of the culture. Samples (100 μL) were collected after 0, 5, 10, 30, 60, 90 and 120 min. Hyphae were collected by centrifugation (10 min, 10,000×g) and the supernatant was stored at −20° C. for analysis. Hyphae were washed (2×10 min) with KCl (0.6 M) to remove any ionically bound protein before they were resuspended in 50 mM CAPS buffer (pH 10.0) containing 10 mM DTT for 20 min. Hyphae were collected by centrifugation and the supernatant, containing cell wall proteins, was collected for analysis. The pellet (containing cells) was resuspended in water and the cells were lysed using glass beads (Sigma, 60 mg) and vortexing (3×10 min). Cellular debris was removed by centrifugation (16,000×g, 10 min) and the supernatant collected for analysis. All samples were then analyzed by SDS-PAGE and immunoblotting.

[30] = system: Thielaviopsis basicola; format: cell-based; conditions: read-out: NaD1 IC50
[31] = system: Fov; experiment: Effect of metal ions (CaCl2, MgCl2) on NaD1 activity against Fov; conditions: NaD1 10 μM; growth of Fov
Method: The activity of NaD1 against Fov was examined as described with varying concentrations of CaCl2 (0.1, 0.2, 0.5, 1.0 and 2.0 μM) or MgCl2 (1.0, 2.0, 10, 20 and 50 μM) present in the medium to determine the effects of divalent cations on NaD1 activity.

[32] = read-out: NaD1 IC50, growth inhibition

## NaD1: plant defensin isolated from floral tissue of Nicotiana alata; also expressed in transgenic cotton line 35.125.1 and canola line CAT13.26 (RECKTESNTFPGICITKPPCRKACISEKFTDGHCSKILRRCLCTKPC; listed as Nicotiana alata)
[1]
  growth of filamentous fungi: inhibit growth
[2]; Gram-negative bacterial strain tested: Pseudomonas aeruginosa
  effect on growth: no effect
[2]; growth inhibition, Pseudomonas aeruginosa
  IC50: > 10000 nM
[3]
  IC50: 750 nM
[4]; transgenic line 35.125.1, seed coat not used
  yield versus untransformed Coker control: not significantly different
[4]; transgenic line expressing NaD1, non-coated seeds
  uninfected plants at the end of the trial: 3.6%
[5]; Gram-positive bacterial strain tested: Bacillus cereus
  effect on growth: no effect
[5]; growth inhibition, Bacillus cereus
  IC50: > 10000 nM
[6]
  ROS production (DHR123 oxidation fluorescence): concentration-dependent increase in fluorescence
[7]; Gram-positive bacterial strain tested: Staphylococcus aureus
  effect on growth: no effect
[7]; growth inhibition, Staphylococcus aureus
  IC50: > 10000 nM
[8]
  effect on growth: no effect
[8]; [32]
  IC50: > 10000 nM
[9]; 0.1, 2 or 10 μM NaD1 or 10 μM NaD1R&A
  permeabilization of hyphae (SYTOX green): permeabilized hyphae
[9]; SYTOX green uptake
  NaD1 concentration up to which Vmax (maximum rate of fluorescence increase) rose linearly; saturable above: 6.25 µM
[9]; SYTOX green uptake over time
  time after which fluorescence began to plateau: 90 min
[9]; above this (up to 50 μM) very little difference in kinetics
  NaD1 concentration up to which rate of permeabilization increased progressively: 3 µM
[9]; all NaD1 concentrations, SYTOX green uptake over time
  lag time before permeabilization: around 20 min
[9]; at 0° C. (relative to 4° C.)
  SYTOX green uptake / permeabilization: reduced even further
[9]; at 4° C.
  SYTOX green uptake / permeabilization: only a small degree of permeabilization
[9]; at 10° C. (less than at 25° C.)
  SYTOX green uptake / permeabilization: substantial uptake of SYTOX® green
[9]; lowest concentration, 0.1 μM NaD1
  SYTOX green uptake: small amount of SYTOX® green uptake
[10]
  mortality: 7%
[11]
  IC50: 800 nM
[12]
  effect on growth: no effect
[12]; [32]
  IC50: > 10000 nM
[13]; even at very high concentrations of NaD1
  entry of 10 kDa FITC-dextran (23 Å) into NaD1-treated hyphae: excluded
[13]; same NaD1 concentration that led to SYTOX green uptake
  entry of 4 kDa FITC-dextran (14 Å) into NaD1-treated hyphae: entered hyphae
[14]
  anti-NaD1 immunogold labeling of cytoplasm of granulated hyphae: heavily labeled
[15]
  synergy with tebuconazole (Io higher than Ee): Synergy
[16]
  IC50: 1000 nM
[17]; Spodoptera frugiperda Sf-21 insect cells
  toxicity to cells: not toxic
[17]; read-out: NaD1 IC50, growth inhibition, Spodoptera frugiperda (Sf21)
  IC50: > 10000 nM
[18]
  IC50: 800 nM
[19]
  mortality: approximately half the mortality of the non-transgenic plants
[20]
  protection from pathological effects of Fov infection versus untransformed parent variety: significantly protected
[21]; 10, 14 and 17 days after inoculation
  average lesion size versus non-transgenic plants: significantly smaller
[21]; Days 10, 14 and 17
  disease scores versus non-transgenic RI64: significantly lower disease scores
[22]; human HeLa cells
  toxicity to cells: not toxic
[22]; read-out: NaD1 IC50, growth inhibition, HeLa cells
  IC50: > 10000 nM
[23]; 0.24 μM NaD1 in the absence of fungicide
  toxicity with Fusarium graminearum: very low
[23]; 0.5 μM defensin (alone)
  inhibition of fungal growth: about 13%
[24]; Gram-negative bacterial strain tested: Escherichia coli
  effect on growth: no effect
[24]; growth inhibition, Escherichia coli
  IC50: > 10000 nM
[25]
  SYTOX green uptake: increases with increasing concentrations of NaD1
[26]; 1 μM defensin
  permeabilization activity among the plant defensins (ATP release): highest permeabilization activity
[26]; 0.125 to 10 μM NaD1
  ATP release: concentration dependant release of ATP
[27]
  effect on growth: no effect
[27]; [32]
  IC50: > 10000 nM
[28]
  resistance to fungal infection relative to non-transgenic lines: more resistant to fungal infection than the non-transgenic lines
[29]; decreased slightly afterwards
  time up to which amount of NaD1 in cytoplasm increased: 60 min
[29]; immunoblotting of cytoplasmic contents
  time at which NaD1 uptake into cytoplasm occurred: 20 min
[30]
  IC50: 800 nM
[31]
  CaCl2 concentration for complete inactivation of NaD1: < 2 mM
  MgCl2 concentration for complete inactivation of NaD1: 50 mM
  antagonism of Ca2+ relative to Mg2+: greater than 20 times
